Data reported in ChEMBL document CHEMBL1149404, “Design and synthesis of substituted phenylpropanoic acid derivatives as human peroxisome proliferator-activated receptor alpha/delta dual agonists” (Bioorg Med Chem Lett, 2006).

Assays:
[1] = biological target: T1, Peroxisome proliferator-activated receptor delta (Homo sapiens, UniProt Q03181); experiment: Agonist activity at PPARdelta transfected in HEK293 cells; format: functional, cell-based
T1 sequence (Q03181 whole entry): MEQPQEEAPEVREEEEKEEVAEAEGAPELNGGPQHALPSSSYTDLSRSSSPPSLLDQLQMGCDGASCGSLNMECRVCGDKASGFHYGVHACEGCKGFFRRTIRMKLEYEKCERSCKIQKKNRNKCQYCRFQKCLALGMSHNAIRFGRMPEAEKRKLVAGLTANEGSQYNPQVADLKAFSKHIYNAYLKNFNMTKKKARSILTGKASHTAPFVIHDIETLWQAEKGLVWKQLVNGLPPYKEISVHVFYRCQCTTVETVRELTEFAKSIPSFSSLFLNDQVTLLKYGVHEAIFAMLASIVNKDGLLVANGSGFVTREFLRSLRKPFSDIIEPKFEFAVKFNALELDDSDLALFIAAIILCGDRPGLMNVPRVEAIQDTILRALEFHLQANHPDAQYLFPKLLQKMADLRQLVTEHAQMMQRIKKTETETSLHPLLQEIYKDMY

[2] = biological target: T2, Peroxisome proliferator-activated receptor alpha (Homo sapiens, UniProt Q07869); experiment: Agonist activity at PPARalpha transfected in HEK293 cells; format: functional, cell-based
T2 sequence (Q07869 whole entry): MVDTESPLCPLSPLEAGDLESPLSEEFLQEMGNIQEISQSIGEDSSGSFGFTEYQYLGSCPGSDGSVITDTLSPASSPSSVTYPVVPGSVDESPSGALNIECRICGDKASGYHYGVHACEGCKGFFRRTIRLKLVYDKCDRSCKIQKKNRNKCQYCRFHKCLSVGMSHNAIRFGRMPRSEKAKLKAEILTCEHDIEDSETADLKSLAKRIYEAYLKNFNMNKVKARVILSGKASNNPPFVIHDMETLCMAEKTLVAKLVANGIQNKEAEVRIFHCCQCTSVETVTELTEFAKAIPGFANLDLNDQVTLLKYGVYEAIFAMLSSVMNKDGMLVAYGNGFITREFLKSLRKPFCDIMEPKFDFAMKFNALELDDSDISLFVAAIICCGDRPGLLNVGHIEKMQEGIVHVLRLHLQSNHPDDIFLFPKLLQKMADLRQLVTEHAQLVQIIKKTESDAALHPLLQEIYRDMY

[3] = biological target: T3, Peroxisome proliferator-activated receptor gamma (Homo sapiens, UniProt P37231); experiment: Agonist activity at PPARgamma transfected in HEK293 cells; format: functional, cell-based
T3 sequence (P37231 whole entry): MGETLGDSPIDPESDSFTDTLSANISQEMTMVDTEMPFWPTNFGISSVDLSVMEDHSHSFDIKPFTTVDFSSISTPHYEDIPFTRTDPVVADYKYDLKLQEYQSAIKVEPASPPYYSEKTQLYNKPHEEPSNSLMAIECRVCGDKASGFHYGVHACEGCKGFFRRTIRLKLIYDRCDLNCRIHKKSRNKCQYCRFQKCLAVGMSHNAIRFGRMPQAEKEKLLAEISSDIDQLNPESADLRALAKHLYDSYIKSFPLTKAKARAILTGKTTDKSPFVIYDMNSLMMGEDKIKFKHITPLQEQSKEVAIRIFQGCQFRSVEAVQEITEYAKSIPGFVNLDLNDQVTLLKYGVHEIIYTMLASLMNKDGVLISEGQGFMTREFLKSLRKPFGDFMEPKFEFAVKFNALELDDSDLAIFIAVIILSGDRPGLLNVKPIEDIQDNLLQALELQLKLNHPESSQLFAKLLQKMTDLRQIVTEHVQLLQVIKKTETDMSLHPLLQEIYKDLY

[4] = biological target: T3, Peroxisome proliferator-activated receptor gamma; experiment: Agonist activity at PPARgamma transfected in HEK293 cells at 1 uM; format: functional, cell-based
[5] = biological target: T2, Peroxisome proliferator-activated receptor alpha; experiment: Agonist activity at PPARalpha transfected in HEK293 cells at 1 uM; format: functional, cell-based
[6] = biological target: T1, Peroxisome proliferator-activated receptor delta; experiment: Agonist activity at PPARdelta transfected in HEK293 cells at 1 uM; format: functional, cell-based
[7] = biological target: T4, Peroxisome proliferator-activated receptor alpha (Mus musculus, UniProt P23204); experiment: Agonist activity at mouse PPARalpha transfected in HEK293 cells; format: functional, cell-based
T4 sequence (P23204 whole entry): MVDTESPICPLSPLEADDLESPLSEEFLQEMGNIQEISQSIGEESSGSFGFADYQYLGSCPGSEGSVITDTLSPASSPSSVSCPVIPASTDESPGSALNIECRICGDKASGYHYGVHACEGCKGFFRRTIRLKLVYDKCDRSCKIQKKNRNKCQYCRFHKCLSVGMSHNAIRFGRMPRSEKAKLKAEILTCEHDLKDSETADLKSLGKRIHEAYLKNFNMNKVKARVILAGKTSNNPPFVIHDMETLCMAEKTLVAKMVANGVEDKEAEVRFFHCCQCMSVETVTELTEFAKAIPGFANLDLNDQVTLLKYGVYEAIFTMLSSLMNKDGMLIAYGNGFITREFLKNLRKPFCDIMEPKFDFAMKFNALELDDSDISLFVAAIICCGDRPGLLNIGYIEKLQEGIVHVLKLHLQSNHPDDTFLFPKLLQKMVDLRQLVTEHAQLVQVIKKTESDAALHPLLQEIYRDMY

[8] = biological target: Peroxisome proliferator-activated receptor alpha (Homo sapiens, UniProt Q07869, I272F); experiment: Agonist activity at human PPARalpha containing mutant I272F domain transfected in HEK293 cells
[9] = biological target: T5, Peroxisome proliferator-activated receptor delta (Mus musculus, UniProt P35396); experiment: Agonist activity at mouse PPARdelta transfected in HEK293 cells; format: functional, cell-based
T5 sequence (P35396 whole entry): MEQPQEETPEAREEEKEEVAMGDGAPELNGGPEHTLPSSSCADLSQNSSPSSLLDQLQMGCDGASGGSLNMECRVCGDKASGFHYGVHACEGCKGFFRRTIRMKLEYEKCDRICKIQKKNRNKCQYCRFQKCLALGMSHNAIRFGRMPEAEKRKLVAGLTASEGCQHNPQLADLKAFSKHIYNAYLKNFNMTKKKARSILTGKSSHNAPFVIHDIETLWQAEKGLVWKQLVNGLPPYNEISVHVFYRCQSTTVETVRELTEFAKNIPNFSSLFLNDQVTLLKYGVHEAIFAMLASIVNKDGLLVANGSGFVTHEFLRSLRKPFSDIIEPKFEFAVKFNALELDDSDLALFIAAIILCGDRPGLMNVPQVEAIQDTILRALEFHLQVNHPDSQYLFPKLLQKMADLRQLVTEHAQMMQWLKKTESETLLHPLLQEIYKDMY

Chain of Peroxisome proliferator-activated receptor alpha (Homo sapiens, UniProt Q07869, I272F) (Q07869 whole entry I272F, the tested form may be a part): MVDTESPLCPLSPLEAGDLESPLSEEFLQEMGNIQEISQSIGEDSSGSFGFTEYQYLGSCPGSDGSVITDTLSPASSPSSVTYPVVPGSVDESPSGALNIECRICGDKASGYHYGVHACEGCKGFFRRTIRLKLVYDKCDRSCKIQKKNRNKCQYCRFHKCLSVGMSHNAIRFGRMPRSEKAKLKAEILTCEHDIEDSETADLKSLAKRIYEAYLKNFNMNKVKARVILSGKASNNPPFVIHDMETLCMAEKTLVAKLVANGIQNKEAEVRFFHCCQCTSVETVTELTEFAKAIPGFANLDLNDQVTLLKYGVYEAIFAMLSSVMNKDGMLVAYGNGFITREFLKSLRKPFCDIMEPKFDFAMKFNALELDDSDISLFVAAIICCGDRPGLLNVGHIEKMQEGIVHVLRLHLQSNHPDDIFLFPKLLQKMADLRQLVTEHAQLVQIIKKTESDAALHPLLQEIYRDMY

Structure (SMILES) | EC50 [1] [nM] | EC50 [2] [nM] | EC50 [3] [nM] | also measured
CCC(Cc1ccc(OC)c(CNC(=O)c2ccc(C(F)(F)F)cc2)c1)C(=O)O (stereo not drawn) | 130 | 10 | 2000 | 
CCC(Cc1ccc(F)c(C(=O)NCc2ccc(C(F)(F)F)cc2)c1)C(=O)O (stereo not drawn) |  |  |  | EC50 [4]: Not Active; EC50 [5]: Not Active; EC50 [6]: Not Active
CCC(Cc1ccc(OC)c(C(=O)NCc2ccc(C(F)(F)F)c(F)c2)c1)C(=O)O (stereo not drawn) | 500 | 25 | 1600 | 
CCC(Cc1ccc(OC)c(C(=O)NCc2ccc(C(F)(F)F)cc2F)c1)C(=O)O (stereo not drawn) | 1000 | 20 | 500 | 
CC[C@@H](Cc1ccc(OC)c(CNC(=O)c2ccc(C(F)(F)F)c(F)c2)c1)C(=O)O | 40 | 10 |  | EC50 [7]: 1000 nM; EC50 [8]: 630 nM; EC50 [9]: 130 nM
CC[C@H](Cc1ccc(OC)c(CNC(=O)c2ccc(C(F)(F)F)c(F)c2)c1)C(=O)O | 700 | 180 | > 10000 | 
CCC(Cc1ccc(OC)c(CNC(=O)c2ccc(F)c(C(F)(F)F)c2)c1)C(=O)O (stereo not drawn) |  |  | > 10000 | 
CCC(Cc1ccc(OC)c(C(=O)NCc2ccc(C(F)(F)F)cc2)c1)C(=O)O (racemic) | 700 | 70 |  | 
